The target of one assay is protein A (Staphylococcus aureus, UniProt P38507). As to conditions: 50 ug/ml in PBS, overnight, SDS-PAGE of beads and supernatants. The protocol:
Beads were pelleted by centrifugation, supernatant was removed, and residual liquid was removed from the beads using a fine pipette tip. Non-reducing Laemmli sample buffer (100 ul) was added to the beads. Beads and supernatants were heated to 90° C. for 5 minutes and equal fractions were analyzed by SDS-PAGE (4-12% NUPAGE gel, MOPS buffer) followed by staining with Coomassie (GelCode™ Blue, ThermoFisher). Molecular weight standard is SeeBlue® Plus 2 marker (ThermoFisher LC5925).

Assay [1] has as its system human APCs (myeloid cells). The assay can be described thus: Cytokine secretion from human APCs / myeloid cells (cell free supernatants). To be noted: 18 hours. Type of assay: cell-based. The protocol:
After 18 hours, cell free supernatants were analyzed for cytokine secretion via cytokine bead arrays; n=3. P-values≤0.05 depicted by *, P-values≤0.01 depicted by **, P-values≤0.001 depicted by ***, P-values≤0.0001 depicted by ****.
2×10^5 APCs were incubated with or without 6.5×10^5 autologous or allogeneic CFSE-labeled tumor cells in 96-well plates (Corning) containing IMDM medium (Gibco) supplemented with 10% fetal bovine serum, 100 U/mL penicillin, 100 μg/mL streptomycin, 2 mM L-glutamine, sodium pyruvate, non-essential amino acids, 50 μM 2-ME and, where indicated, various concentrations of anti-tumor antibody and the indicated adjuvants. […]
While the expression of T cell stimulatory molecules such as CD40, CD86 and HLA-DR is necessary for effective T cell activation, APCs also influence the nature of the ensuing immune response through the secretion of cytokines. Therefore, the capacity of immunoconjugates to elicit cytokine secretion in human APCs following stimulation was investigated as described above.
The capacity of these immunoconjugates to elicit cytokine secretion in human APCs following stimulation was investigated as described in Example 3 above.
2×10^5 APCs were incubated with or without 6.5×10^5 allogeneic CFSE-labeled tumor cells in 96-well plates (Corning) containing IMDM medium (Gibco) supplemented with 10% fetal bovine serum, 100 U/mL penicillin, 100 μg/mL streptomycin, 2 mM L-glutamine, sodium pyruvate, non-essential amino acids and, where indicated, various concentrations of unconjugated CD20 antibody, and immunoconjugates of the invention were prepared according to the examples above. […]

In assay [2] the target is T1, recombinant human CD64 protein (Homo sapiens, UniProt P12314).
T1 construct: purchased R&D Systems
T1 sequence (P12314 16-374): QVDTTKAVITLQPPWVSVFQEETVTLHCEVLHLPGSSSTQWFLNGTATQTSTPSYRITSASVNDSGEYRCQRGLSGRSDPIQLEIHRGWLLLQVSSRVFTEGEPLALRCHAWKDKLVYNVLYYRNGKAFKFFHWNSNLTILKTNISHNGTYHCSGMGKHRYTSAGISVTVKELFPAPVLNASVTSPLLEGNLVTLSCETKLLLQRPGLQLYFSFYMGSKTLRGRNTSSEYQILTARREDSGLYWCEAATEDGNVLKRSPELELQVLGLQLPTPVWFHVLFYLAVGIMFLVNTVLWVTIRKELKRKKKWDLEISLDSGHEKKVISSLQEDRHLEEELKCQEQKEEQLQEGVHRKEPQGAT
Put plainly: ELISA binding to CD64. As to conditions: titration. The method, then: Maxysorp ELISA plates were coated overnight with 1.5 ug/ml recombinant human CD64 protein (R&D Systems). Plates were blocked with PBS containing 1% BSA, and incubated with a titration of Rituximab or Rituximab immunoconjugates (Rituximab BB-01). Bound antibodies were detected with Peroxidase conjugated AffiniPure F(ab′)2 Fragment Goat Anti-Human IgG (Jackson) using TMB color development and absorbance at 450 nm was measured after stopping the reaction.

Assay [3] deals with human APCs (myeloid cells). Put plainly: APC-tumor co-culture / myeloid cell stimulation, surface markers by flow cytometry. The assay is classed as cell-based. As to conditions: 18 hours of stimulation. An excerpt:
Human antigen presenting cells (APCs) were negatively selected from human peripheral blood mononuclear cells obtained from healthy blood donors (Stanford Blood Center) by density gradient centrifugation using a RosetteSep Human Monocyte Enrichment Cocktail (Stem Cell Technologies) containing monoclonal antibodies against CD2, CD3, CD8, CD19, CD56, CD66b and CD235a. Immature APCs were subsequently purified to >97% purity via negative selection using an EasySep Human Monocyte Enrichment Kit without CD16 depletion containing monoclonal antibodies against CD2, CD3, CD19, CD20, CD56, CD66b, CD123 and CD235a.
Tumor cells were resuspended in PBS with 0.1% fetal bovine serum (FBS) at 1 to 10×10^6 cells/mL. Cells were subsequently incubated with 2 μM CFSE to yield a final concentration of 1 μM. The reaction was ended after 2 minutes via the addition of 10 mL complete medium with 10% FBS and washed once with complete medium. Cells were either fixed in 2% paraformaldehyde and washed three times with PBS or left unfixed prior to freezing the cells in 10% DMSO, 20% FBS and 70% medium.
2×10^5 APCs were incubated with or without 6.5×10^5 autologous or allogeneic CFSE-labeled tumor cells in 96-well plates (Corning) containing IMDM medium (Gibco) supplemented with 10% fetal bovine serum, 100 U/mL penicillin, 100 μg/mL streptomycin, 2 mM L-glutamine, sodium pyruvate, non-essential amino acids, 50 μM 2-ME and, where indicated, various concentrations of anti-tumor antibody and the indicated adjuvants. Cells and cell-free supernatants were analyzed after 18 hours via flow cytometry.
Human antigen presenting cells (APCs) were negatively selected from human peripheral blood mononuclear cells obtained from healthy blood donors (Stanford Blood Center) by density gradient centrifugation using a RosetteSep Human Monocyte Enrichment Cocktail (Stem Cell Technologies) containing monoclonal antibodies against […]. Immature APCs were subsequently purified to >97% purity via negative selection using an EasySep Human Monocyte Enrichment Kit without CD16 depletion containing monoclonal antibodies against CD14, CD16, CD40, CD86, CD123, and HLA-DR.
2×10^5 APCs were incubated with or without 6.5×10^5 autologous or allogeneic CFSE-labeled tumor cells in 96-well plates (Corning) containing IMDM medium (Gibco) supplemented with 10% fetal bovine serum, 100 U/mL penicillin, 100 μg/mL streptomycin, 2 mM L-glutamine, sodium pyruvate, non-essential amino acids, 50 μM 2-ME and, where indicated, various concentrations of antibody. Cells and cell-free supernatants were analyzed after 18 hours via flow cytometry.
2×10^5 APCs were incubated with or without 6.5×10^5 allogeneic CFSE-labeled tumor cells in 96-well plates (Corning) containing IMDM medium (Gibco) supplemented with 10% fetal bovine serum, 100 U/mL penicillin, 100 μg/mL streptomycin, 2 mM L-glutamine, sodium pyruvate, non-essential amino acids and, where indicated, various concentrations of unconjugated CD20 antibody, and immunoconjugates of the invention were prepared according to the examples above. Cells and cell-free supernatants were analyzed after 18 hours via flow cytometry or ELISA.

In the case of Rituximab [reference compound], the “binding to protein A” value with protein A is “bind to protein A”. Also, the “cytokine secretion (overall)” value in assay [1] is given as “do not”. In assay [2], the “binding to CD64” value was “comparable binding to CD64”. Besides, the “CD86 upregulation on myeloid cells” value in assay [3] (compared with the corresponding unconjugated antibody unless the value names another comparator) is “the control does not”. The “APC / myeloid / dendritic cell activation (overall)” value in assay [3] (listed as unconjugated CD20 antibody) was “do not”.

Values taken from patent US11547761B1, “Antibody adjuvant conjugates” (The Board of Trustees of the Leland Stanford Junior …, priority 2016, dated 2023).
